The target in the test is T1, Recombinant human cathepsin K (Homo sapiens, UniProt P43235).
T1 construct: made in house
T1 sequence (P43235 115-329): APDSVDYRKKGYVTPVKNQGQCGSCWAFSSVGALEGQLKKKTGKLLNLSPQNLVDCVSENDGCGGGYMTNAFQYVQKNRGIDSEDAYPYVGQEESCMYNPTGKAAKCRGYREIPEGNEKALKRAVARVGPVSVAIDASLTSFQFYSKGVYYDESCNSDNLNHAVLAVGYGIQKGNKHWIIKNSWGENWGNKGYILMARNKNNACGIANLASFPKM
In words: Kinetic measurements, hydrolysis of the fluorogenic substrate Z-FR↓AMC (general modifier mechanism). The class given is biochemical. Also on record: key to α (coefficient, effect of modifier on the affinity for the substrate) / β (coefficient, effect of modifier on the catalytic rate): dimensionless coefficients multiplying KS (α) and kcat (β). The procedure: All modifiers were tested for their effect on the hydrolysis of the low molecular mass synthetic substrate Z-FR↓AMC. Since all progress curves were linear from the beginning of the reaction, initial velocities were calculated from the slopes by linear regression. […] The basic mechanism considered for the analysis of the interactions was the general modifier mechanism shown in Figure 2, in which the effect of modifier is determined by the values of the coefficients α and β that multiply the kinetic parameters K S, K A (α) and k cat (β). In the thermodynamic box embodied in Figure 2, the reciprocal of the coefficient α represents the allosteric coupling constant that characterizes energy linkage between the modifier and the substrate, while a […] represents the effect exerted by the modifier on catalysis. The specific velocity plot was used for the primary screening of the kinetic behavior of the modifiers (Equation 2), as it allows an immediate judgment of the type of interaction and to gather preliminary estimates of the coefficients α and β, as well as of the dissociation constant of the modifier. Refinement was then performed by fitting the rate Equation 1 to data.
Figure 3 Kinetic mechanisms of the identified modifiers. All compounds were characterized by a combination of specific velocity plots (upper panels) and titration curves recorded at fixed substrate concentrations (lower panels). All experiments were performed at 25±1°C in 100 mM sodium acetate buffer pH 5.50 containing 1 mM EDTA and 2.5 mM DTT using the fluorogenic substrate Z-FR↓AMC and at a final enzyme concentration of 0.5 nM.
All kinetic measurements were performed in 100 mM sodium acetate buffer pH 5.50 containing 1 mM EDTA and 2.5 mM dithiothreitol (DTT) in single-use acrylic cuvettes (1×1 cm) thermostatted at 25±1°C with magnetic stirring. The hydrolysis of Z-FR↓AMC was followed fluorometrically at λex 383 nm and λem 455 nm. All tested modifiers were analyzed spectroscopically to determine their absorption properties under the conditions used in the assays. When necessary, appropriate corrections were made to the calculated reaction rates to take into account the inner filter effect.
The effects of the modifiers on enzymatic activity were analyzed with the general modifier mechanism which describes the interaction between enzyme (E), substrate (S) and modifier (A), as shown in Figure 2. Assuming that binding of A to E and ES is at quasi-equilibrium and that steady-state conditions are established in the fluxes around ES and ESA (i.e. the catalytic steps), the reaction rate for the mechanism in Figure 2 is defined by Equation 1: [drawing 2] (1) where v 0 is the reaction rate in the absence of modifier, K A is the equilibrium dissociation constant of the EA complex, α and β are dimensionless coefficients and σ = [S]/K m, approximated to [S]/K s. To determine the mechanism of interaction, plot the kinetic data and calculate preliminary values of the interaction parameters, the specific velocity plot was used. For this purpose, Equation 1 is rewritten as:
The plot of v 0/v A versus σ/(1+σ) produces straight lines with intersection points at v 0/v A = 1, regardless of the interaction mechanism. The parameters α, β and K A are determined by replotting the extrapolated values of the straight lines at σ/(1+σ) = 0 (a) and σ/(1+σ) = 1 (b) versus 1/[A] in the form: [drawing 4] (3) [drawing 5] (4)

Each structure is given as a SMILES string.

In the case of `OC(c1cc(-c2ccc(C(F)(F)F)cc2)nc(C(F)(F)F)c1)C1CCCCN1` (stereo not drawn) [Compound 2, Piperidin-2-yl-[2-(trifluoromethyl)-6-[4-(trifluoromethyl)phenyl]pyridin-4-yl] methanol], the “Z-FRAMC: geometric mean of residual activities (vA)” value (at 0.1×Km and 10×Km substrate, modifier 10×KA, calculated with Equation 1 from α and β of Table 3, unmodified enzyme = 1.00) is on record as 0.42. Besides, where the note is “substrate Z-FR↓AMC, pH 5.50, 25°C, 0.5 nM enzyme”, the “β (coefficient, effect of modifier on the catalytic rate)” value is given as 0.74±0.13. Further, the Kd (substrate Z-FR↓AMC, pH 5.50, 25°C, 0.5 nM enzyme, read-out: K A (equilibrium dissociation constant of the EA complex)) turned out to be 150 ± 50 µM.

The values above are taken from publication PMC4153677, “Probing the Activity Modification Space of the Cysteine Peptidase Cathepsin K with Novel Allosteric Modifiers” (PLoS ONE, 2014).
